Common to all, as to assay type: in vivo
For experiment [1], the system named is mouth. The experiment in a line: Application in mouthwash: cooling perception in the mouth. The settings on record: mouthwash with 10 mL of 1% solution in alcohol per liter, 30 mL swished, gargled and spit out. As for the experimental part: [table] All the ingredients are mixed. 30 mL of obtained solution is put in the mouth, swished around, gargled and spit out. […] The cooling perception lasts for several hours

The test system of another experiment is panelists. Kind of experiment: experiment on cooling intensity: panelists taste solutions and compare with menthol at 2 ppm. The settings on record: tasted by a small group of panelists; reference menthol at 2 ppm.
For experiment [2], the system named is mouth. The experiment in a line: Application in toothpaste: cooling perception in the mouth. To be noted: toothgel with 1.500 g of 2% solution in PG per 100 g, teeth brushed, mouth rinsed with water. The text has this: [table] The chemicals are mixed in the toothgel, a piece of toothgel is put on a toothbrush and a panelist's teeth are brushed. The mouth is rinsed with water and the water is spit out. […] The cooling perception lasts for several hours.

For `CC1CCC(C(C)C)C(C(=O)Nc2cccc3ocnc23)C1` (stereo not shown) [Example 1, N-benzooxazol-4-yl 3-p-menthanecarboxamide], in the experiment on mouth [1], the “duration of cooling perception” value is “several hours”. Besides, the cooling sensation result with mouth [1] (every area of the mouth and lips) is “intense cooling”. Also, the “Concentration of solution having a cooling intensity similar or slightly higher than that of a solution of menthol at 2 ppm” value (from here on “Concentration”) in the experiment with panelists is reported as 0.02 ppm. As to `CC1CCC(C(C)C)C(O)C1` (stereo not shown) [Example 1-Menthol, 1-Menthol, reference compound], in the experiment on panelists, the “Concentration” value is on record as 2.0 ppm. Regarding `CC1CCC(C(C)C)C(C(=O)Nc2ccc3ncsc3c2)C1` (stereo not shown) [Example 3, N-benzothiazol-6-yl menthanecarboxamide], the “Concentration” value with panelists was found to be 0.3 ppm.

For the compound `CC1CCC(C(C)C)C(C(=O)Nc2ccc(-n3cncn3)cc2)C1` (stereo not shown) [Example 4, N-4-([1,2,4]triazol-1-yl)-phenyl-3-p-menthanecarboxamide], the “Concentration” value in the experiment on panelists is 0.02 ppm.

`CC1CCC(C(C)C)C(C(=O)Nc2ccc(-c3cnco3)cc2)C1` (stereo not shown) [Example 5, N-4-(oxazol-5-yl)-phenyl-3-p-menthanecarboxamide]: the “Concentration” value in the experiment with panelists turned out to be 0.5 ppm. On to `CC1CCC(C(C)C)C(C(=O)Nc2cccc(-c3cnco3)c2)C1` (stereo not shown) [Example 6, N-3-(oxazol-5-yl)-phenyl-3-p-menthanecarboxamide], for which the “duration of cooling perception” value with mouth [2] is given as “several hours”. Besides, the cooling sensation result in the experiment with mouth [2] (all areas of the mouth) is “intense cooling sensation”. Moreover, in the experiment with panelists, the “Concentration” value was 0.1 ppm. Turning to `CC1CCC(C(C)C)C(C(=O)Nc2ccc(N3CCOCC3)cc2)C1` (stereo not shown) [N-4-(morpholin-4-yl)-phenyl 3-p-menthanecarboxamide], the “Concentration” value in the experiment on panelists is given as 0.2 ppm.

`CC1CCC(C(C)C)C(C(=O)Nc2ccc(-n3cccn3)cc2)C1` (stereo not shown) [N-4-(pyrazol-1-yl)-phenyl-3-p-menthanecarboxamide]: the “Concentration” value with panelists is reported as 0.02 ppm. Same read-out and setting: the figure for `CC1CCC(C(C)C)C(C(=O)Nc2ccc3c(c2)OCO3)C1` (stereo not shown) [N-benzo[1,3]dioxol-5-yl-3-p-menthanecarboxamide] is 0.02 ppm.

The record behind these values is patent US7868004B2, “Menthane carboxamide derivatives having cooling properties” (Givaudan S.A., priority 2005, dated 2011).
